Experiments:
Histone deacetylase = assay type: cell-based, Homo sapiens; conditions: hela
HepG2 = experiment: cells; assay type: functional, cell-based; conditions: Homo sapiens, HepG2, 48 h
MDA-MB-231 [1] = experiment: Potency index, ratio of MS-275 IC50 to test compound IC50 for antiproliferative activity against human MDA-MB-231 cells; assay type: functional
K562 = experiment: cells; assay type: functional, cell-based; conditions: Homo sapiens, K562, 48 h
MDA-MB-231 [2] = experiment: Potency index, ratio of SAHA IC50 to test compound IC50 for antiproliferative activity against human MDA-MB-231 cells; assay type: functional
HCT-116 = experiment: Antiproliferative activity against human HCT-116 cells measured after 48 hrs by MTT assay; assay type: functional, cell-based; conditions: HCT-116, 48 h
SGC-7901 = experiment: Antiproliferative activity against human SGC-7901 cells measured after 48 hrs by MTT assay; assay type: functional, cell-based; conditions: SGC-7901, 48 h
[3] = molecular target: T1, Protein deacetylase HDAC6 (Homo sapiens, UniProt Q9UBN7); experiment: Inhibition of recombinant human N-terminal GST-tagged HDAC6 (1 to 1215 residues) expressed in Sf9 insect cells using fluorogenic HDAC substrate 3 measured after 30 mins by fluorimetry
T1 sequence (Q9UBN7 whole entry): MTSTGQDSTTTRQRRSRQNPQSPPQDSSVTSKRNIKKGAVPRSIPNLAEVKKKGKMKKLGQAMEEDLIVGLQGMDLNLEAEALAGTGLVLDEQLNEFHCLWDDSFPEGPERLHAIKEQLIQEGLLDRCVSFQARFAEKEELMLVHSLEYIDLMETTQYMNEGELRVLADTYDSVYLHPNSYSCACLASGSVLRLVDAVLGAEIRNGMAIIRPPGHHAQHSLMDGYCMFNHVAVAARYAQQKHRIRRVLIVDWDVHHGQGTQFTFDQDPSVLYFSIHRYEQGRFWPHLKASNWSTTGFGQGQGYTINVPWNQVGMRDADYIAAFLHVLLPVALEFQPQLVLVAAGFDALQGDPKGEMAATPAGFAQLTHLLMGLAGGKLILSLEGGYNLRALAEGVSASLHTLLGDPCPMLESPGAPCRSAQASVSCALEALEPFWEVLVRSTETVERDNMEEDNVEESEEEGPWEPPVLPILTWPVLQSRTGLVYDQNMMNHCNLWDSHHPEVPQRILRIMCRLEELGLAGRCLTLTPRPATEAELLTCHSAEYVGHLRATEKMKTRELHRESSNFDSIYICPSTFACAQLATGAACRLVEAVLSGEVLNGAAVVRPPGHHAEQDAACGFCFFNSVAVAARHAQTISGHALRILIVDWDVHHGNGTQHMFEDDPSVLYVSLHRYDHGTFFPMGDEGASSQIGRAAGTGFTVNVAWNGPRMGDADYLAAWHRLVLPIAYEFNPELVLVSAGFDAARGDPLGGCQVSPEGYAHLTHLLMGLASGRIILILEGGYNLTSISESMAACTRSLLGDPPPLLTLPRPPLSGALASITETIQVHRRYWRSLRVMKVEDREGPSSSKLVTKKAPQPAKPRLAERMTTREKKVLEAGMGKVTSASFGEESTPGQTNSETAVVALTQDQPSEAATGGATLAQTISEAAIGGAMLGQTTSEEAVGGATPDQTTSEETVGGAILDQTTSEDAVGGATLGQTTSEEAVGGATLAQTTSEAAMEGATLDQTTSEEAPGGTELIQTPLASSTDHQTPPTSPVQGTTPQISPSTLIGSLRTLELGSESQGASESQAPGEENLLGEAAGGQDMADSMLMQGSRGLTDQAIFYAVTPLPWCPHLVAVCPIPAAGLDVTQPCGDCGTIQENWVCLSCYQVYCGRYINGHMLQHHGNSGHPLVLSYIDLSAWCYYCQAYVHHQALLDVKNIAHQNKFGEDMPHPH

A549 = experiment: cells; assay type: functional, cell-based; conditions: Homo sapiens, A549, 48 h
Histone deacetylase 4 = Histone deacetylase 4 (Homo sapiens, UniProt P56524); experiment: Inhibition of recombinant human N-terminal GST-fused/C-terminal His-tagged HDAC4 (627 to 1084 residues) expressed in baculovirus infected Sf9 insect cells using fluorogenic HDAC class 2a substrate measured after 30 mins by fluorimetry
MDA-MB-231 [4] = experiment: Antiproliferative activity against human MDA-MB-231 cells measured after 48 hrs by MTT assay; assay type: functional, cell-based; conditions: MDA-MB-231, 48 h
[5] = molecular target: Histone deacetylase 3/Nuclear receptor corepressor 2 (HDAC3/NCoR2) (Homo sapiens, UniProt O15379); experiment: biochemical; parameters: species or system Sf9
Histone deacetylase 8 = molecular target: T2, Histone deacetylase 8 (Homo sapiens, UniProt Q9BY41); experiment: Inhibition of human full-length C-terminal His-tagged HDAC8 expressed in baculovirus infected Sf9 insect cell using fluorogenic HDAC class 2a substrate measured after 30 mins by fluorimetry
T2 sequence (Q9BY41 whole entry): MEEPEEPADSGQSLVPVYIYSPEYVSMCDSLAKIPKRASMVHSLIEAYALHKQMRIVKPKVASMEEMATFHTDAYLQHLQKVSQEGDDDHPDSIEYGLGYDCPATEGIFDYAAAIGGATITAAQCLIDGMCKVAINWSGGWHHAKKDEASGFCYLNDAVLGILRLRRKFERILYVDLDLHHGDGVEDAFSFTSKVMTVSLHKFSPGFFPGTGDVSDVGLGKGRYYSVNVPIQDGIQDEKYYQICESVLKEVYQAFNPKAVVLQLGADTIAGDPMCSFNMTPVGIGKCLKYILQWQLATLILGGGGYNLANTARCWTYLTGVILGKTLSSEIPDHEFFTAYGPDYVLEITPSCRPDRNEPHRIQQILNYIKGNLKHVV

Histone deacetylase 1 = Histone deacetylase 1 (Homo sapiens, UniProt Q13547); experiment: Inhibition of recombinant human full-length C-terminal Flag-His6-tagged HDAC1 (1 to 482 residues) expressed in Sf9 insect cells using fluorogenic HDAC substrate measured after 30 mins by fluorimetry
in vitro = conditions: dog, liver microsomes

Histone deacetylase 3/Nuclear receptor corepressor 2 (HDAC3/NCoR2), sequence (O15379 whole entry): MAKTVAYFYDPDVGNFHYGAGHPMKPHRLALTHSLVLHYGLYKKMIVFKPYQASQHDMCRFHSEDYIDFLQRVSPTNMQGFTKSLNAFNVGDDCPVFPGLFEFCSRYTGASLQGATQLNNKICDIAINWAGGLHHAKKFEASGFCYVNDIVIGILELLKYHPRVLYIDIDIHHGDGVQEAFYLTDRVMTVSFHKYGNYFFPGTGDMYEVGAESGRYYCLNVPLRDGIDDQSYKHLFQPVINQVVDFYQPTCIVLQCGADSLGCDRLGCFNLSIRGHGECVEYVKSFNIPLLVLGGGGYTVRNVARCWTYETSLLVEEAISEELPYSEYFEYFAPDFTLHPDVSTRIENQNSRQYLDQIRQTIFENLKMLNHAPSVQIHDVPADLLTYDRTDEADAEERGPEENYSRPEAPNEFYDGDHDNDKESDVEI
Histone deacetylase 3/Nuclear receptor corepressor 2 (HDAC3/NCoR2), sequence (Q9Y618 whole entry, further chain): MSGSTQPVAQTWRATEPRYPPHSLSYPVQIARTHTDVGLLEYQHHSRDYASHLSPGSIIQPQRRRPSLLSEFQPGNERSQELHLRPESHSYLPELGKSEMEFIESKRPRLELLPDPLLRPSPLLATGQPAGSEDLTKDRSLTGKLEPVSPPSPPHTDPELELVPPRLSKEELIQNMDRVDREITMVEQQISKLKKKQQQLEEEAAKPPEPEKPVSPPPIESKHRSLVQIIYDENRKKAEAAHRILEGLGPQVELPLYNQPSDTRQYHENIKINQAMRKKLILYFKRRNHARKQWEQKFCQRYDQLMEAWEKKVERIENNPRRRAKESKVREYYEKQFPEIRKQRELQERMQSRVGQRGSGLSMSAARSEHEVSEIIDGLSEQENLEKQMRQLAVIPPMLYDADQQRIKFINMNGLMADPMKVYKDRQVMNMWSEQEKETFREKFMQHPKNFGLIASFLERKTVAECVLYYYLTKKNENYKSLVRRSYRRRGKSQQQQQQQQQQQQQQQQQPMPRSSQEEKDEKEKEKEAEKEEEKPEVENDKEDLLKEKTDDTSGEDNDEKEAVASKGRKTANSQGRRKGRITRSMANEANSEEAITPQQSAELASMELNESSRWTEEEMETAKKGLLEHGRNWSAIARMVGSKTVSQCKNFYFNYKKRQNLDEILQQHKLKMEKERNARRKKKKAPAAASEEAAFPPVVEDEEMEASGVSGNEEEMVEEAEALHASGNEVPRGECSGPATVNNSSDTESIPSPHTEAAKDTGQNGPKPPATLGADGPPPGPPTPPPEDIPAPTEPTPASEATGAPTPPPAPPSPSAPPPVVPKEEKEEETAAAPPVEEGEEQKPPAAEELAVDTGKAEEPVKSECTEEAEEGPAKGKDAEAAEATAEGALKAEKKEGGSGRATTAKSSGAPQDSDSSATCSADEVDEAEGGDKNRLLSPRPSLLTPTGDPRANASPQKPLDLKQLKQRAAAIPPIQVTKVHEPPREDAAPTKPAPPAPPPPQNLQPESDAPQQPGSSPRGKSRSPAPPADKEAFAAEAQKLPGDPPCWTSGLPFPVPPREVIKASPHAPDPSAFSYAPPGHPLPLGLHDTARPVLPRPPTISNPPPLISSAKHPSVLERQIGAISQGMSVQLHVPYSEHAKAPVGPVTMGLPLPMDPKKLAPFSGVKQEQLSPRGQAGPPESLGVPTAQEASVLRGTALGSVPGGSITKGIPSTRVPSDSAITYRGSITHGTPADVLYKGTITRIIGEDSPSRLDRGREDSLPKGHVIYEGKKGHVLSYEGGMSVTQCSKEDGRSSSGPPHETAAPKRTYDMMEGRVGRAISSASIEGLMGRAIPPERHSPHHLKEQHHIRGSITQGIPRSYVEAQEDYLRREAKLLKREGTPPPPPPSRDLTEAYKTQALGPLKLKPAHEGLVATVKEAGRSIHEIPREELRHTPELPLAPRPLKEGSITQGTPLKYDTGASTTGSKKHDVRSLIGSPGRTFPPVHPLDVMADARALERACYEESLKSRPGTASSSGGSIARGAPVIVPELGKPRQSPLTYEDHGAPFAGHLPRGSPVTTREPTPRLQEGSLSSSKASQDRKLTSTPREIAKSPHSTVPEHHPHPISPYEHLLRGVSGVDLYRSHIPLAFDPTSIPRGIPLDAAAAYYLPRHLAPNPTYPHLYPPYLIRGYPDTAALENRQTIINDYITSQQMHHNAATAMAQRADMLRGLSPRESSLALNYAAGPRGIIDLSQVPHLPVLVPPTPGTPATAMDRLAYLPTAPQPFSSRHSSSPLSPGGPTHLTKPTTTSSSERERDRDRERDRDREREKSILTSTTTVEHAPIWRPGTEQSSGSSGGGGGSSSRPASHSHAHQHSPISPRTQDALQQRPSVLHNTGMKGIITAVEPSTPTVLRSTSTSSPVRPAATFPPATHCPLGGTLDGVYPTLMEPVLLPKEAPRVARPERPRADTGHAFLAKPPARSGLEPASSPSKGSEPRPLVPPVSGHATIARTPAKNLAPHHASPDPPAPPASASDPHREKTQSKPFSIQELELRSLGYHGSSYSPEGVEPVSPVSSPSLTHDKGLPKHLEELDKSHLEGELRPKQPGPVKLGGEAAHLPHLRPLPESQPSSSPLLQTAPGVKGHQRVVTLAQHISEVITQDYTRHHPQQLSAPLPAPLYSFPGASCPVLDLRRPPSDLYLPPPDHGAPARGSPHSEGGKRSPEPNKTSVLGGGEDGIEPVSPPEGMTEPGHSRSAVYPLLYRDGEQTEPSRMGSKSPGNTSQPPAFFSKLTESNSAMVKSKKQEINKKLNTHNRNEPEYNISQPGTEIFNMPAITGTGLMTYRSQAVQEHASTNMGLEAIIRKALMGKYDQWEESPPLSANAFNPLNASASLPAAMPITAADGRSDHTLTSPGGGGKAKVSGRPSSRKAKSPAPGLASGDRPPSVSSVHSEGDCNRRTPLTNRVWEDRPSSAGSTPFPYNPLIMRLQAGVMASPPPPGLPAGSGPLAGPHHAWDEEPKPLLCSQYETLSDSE
Histone deacetylase 4, sequence (P56524 whole entry, the tested form may be a part): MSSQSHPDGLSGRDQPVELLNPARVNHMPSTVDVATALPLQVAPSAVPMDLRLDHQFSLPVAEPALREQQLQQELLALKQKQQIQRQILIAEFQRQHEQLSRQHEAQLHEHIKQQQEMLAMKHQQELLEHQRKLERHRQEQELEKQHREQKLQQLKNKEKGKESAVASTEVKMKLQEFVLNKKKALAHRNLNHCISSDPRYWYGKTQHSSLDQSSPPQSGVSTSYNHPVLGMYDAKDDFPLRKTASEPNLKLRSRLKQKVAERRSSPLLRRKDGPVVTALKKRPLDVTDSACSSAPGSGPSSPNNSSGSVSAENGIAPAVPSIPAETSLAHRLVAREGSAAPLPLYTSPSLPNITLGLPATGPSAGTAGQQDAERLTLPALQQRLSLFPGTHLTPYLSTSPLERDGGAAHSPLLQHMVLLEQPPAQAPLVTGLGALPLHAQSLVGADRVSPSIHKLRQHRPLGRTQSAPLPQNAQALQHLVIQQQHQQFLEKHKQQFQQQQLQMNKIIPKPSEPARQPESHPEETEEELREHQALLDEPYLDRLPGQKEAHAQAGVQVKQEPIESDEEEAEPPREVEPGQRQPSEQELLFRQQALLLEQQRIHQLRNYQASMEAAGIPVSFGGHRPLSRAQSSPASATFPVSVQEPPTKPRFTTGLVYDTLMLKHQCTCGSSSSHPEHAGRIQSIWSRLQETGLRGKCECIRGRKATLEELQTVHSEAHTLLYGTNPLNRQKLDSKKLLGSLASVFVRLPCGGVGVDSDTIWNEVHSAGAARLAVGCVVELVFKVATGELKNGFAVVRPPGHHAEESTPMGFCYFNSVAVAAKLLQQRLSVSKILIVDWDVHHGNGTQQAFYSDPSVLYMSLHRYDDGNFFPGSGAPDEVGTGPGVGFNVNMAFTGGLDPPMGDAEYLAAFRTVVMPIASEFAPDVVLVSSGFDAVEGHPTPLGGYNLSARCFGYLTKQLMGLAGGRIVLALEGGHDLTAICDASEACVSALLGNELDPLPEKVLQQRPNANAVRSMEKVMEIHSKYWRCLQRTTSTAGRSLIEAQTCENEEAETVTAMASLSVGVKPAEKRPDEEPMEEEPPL
Histone deacetylase 1, sequence (Q13547 whole entry, the tested form may be a part): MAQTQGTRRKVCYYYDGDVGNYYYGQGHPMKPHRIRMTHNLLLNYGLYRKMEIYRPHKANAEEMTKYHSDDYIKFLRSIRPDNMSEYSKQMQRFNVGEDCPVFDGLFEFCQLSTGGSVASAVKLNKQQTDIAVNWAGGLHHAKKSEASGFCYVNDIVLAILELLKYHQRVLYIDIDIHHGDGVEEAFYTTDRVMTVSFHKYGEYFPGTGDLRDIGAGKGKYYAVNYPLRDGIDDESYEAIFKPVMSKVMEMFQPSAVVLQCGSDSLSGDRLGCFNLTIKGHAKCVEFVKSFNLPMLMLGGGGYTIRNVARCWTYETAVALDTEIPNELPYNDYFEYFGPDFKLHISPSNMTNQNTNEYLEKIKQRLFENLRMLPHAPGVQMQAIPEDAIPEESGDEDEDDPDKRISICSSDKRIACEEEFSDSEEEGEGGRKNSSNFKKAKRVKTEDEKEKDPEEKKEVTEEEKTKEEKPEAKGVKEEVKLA

Row | IC50 (Histone deacetylase) | IC50 (HCT-116) | IC50 (SGC-7901) | IC50 (A549) | IC50 (MDA-MB-231 [4]) | Structure (SMILES) | other results
1 | 1730 nM | – | – | – | – | CNc1nc(Cl)nc2c1ncn2Cc1ccc(C(=O)Nc2ccc(F)cc2N)cc1 | –
2 | 5570 nM | – | – | – | – | CCNc1nc(Cl)nc2c1ncn2Cc1ccc(C(=O)Nc2ccc(C)cc2N)cc1 | –
3 | 1010 nM | – | – | – | – | CCCCNc1nc(Cl)nc2c1ncn2Cc1ccc(C(=O)Nc2ccc(C)cc2N)cc1 | –
4 | 4410 nM | – | – | – | – | CCCNc1nc(Cl)nc2c1ncn2Cc1ccc(C(=O)Nc2ccc(F)cc2N)cc1 | –
5 | 5770 nM | – | – | – | – | CCNc1nc(Cl)nc2c1ncn2Cc1ccc(C(=O)Nc2ccc(F)cc2N)cc1 | –
6 | 2030 nM | – | – | – | – | CCCCCNc1nc(Cl)nc2c1ncn2Cc1ccc(C(=O)Nc2ccc(C)cc2N)cc1 | –
7 | 1280 nM | – | – | – | – | CCCCNc1nc(Cl)nc2c1ncn2Cc1ccc(C(=O)Nc2ccc(F)cc2N)cc1 | –
8 | 25040 nM | – | – | – | – | Cc1ccc(NC(=O)c2ccc(Cn3cnc4c(Cl)nc(Cl)nc43)cc2)c(N)c1 | –
9 | 3130 nM | – | – | – | – | CCCNc1nc(Cl)nc2c1ncn2Cc1ccc(C(=O)Nc2ccc(C)cc2N)cc1 | –
10 | 1640 nM | 1530 nM | 990 nM | 860 nM | 60 nM | CCNc1nc(Cl)nc2c1ncn2Cc1ccc(C(=O)Nc2ccccc2N)cc1 | IC50 (HepG2): 160 nM; Ratio IC50 (MDA-MB-231 [1]): 4; IC50 (K562): 2890 nM; Ratio IC50 (MDA-MB-231 [2]): 4; IC50 [3]: 31700 nM; IC50 (Histone deacetylase 4): > 100000 nM; IC50 [5]: 1070 nM; IC50 (Histone deacetylase 8): 2370 nM; IC50 (Histone deacetylase 1): 93.5 nM
11 | 4330 nM | – | – | – | – | CCN(CC)c1nc(Cl)nc2c1ncn2Cc1ccc(C(=O)Nc2ccc(C)cc2N)cc1 | –
12 | 9260 nM | – | – | – | – | CCCNc1nc(Cl)nc2c1ncn2Cc1ccc(C(=O)Nc2ccc(Br)cc2N)cc1 | –
13 | 2160 nM | – | – | – | – | CNc1nc(Cl)nc2c1ncn2Cc1ccc(C(=O)Nc2ccc(Br)cc2N)cc1 | –
14 | 2040 nM | – | – | – | – | CCCCNc1nc(Cl)nc2c1ncn2Cc1ccc(C(=O)Nc2ccc(Br)cc2N)cc1 | –
15 | 10330 nM | – | – | – | – | CCNc1nc(Cl)nc2c1ncn2Cc1ccc(C(=O)Nc2ccc(Br)cc2N)cc1 | –
16 | 1980 nM | – | – | – | – | CNc1nc(Cl)nc2c1ncn2Cc1ccc(C(=O)Nc2ccc(C)cc2N)cc1 | –
17 | 18680 nM | – | – | – | – | CCCCCNc1nc(Cl)nc2c1ncn2Cc1ccc(C(=O)Nc2ccc(Br)cc2N)cc1 | –

The next lines start with the compound.

Row | Structure (SMILES) | IC50 (Histone deacetylase) | IC50 (HCT-116) | IC50 (SGC-7901) | IC50 (A549) | IC50 (MDA-MB-231 [4]) | other results
18 | CCCNc1nc(Cl)nc2c1ncn2Cc1ccc(C(=O)Nc2ccccc2N)cc1 | 574 nM | 5500 nM | 1990 nM | 800 nM | 50 nM | IC50 (HepG2): 120 nM; Ratio IC50 (MDA-MB-231 [1]): 4; IC50 (K562): 5430 nM; Ratio IC50 (MDA-MB-231 [2]): 4; IC50 [3]: 43700 nM; IC50 (Histone deacetylase 4): > 100000 nM; IC50 [5]: 1360 nM; IC50 (Histone deacetylase 8): 1880 nM; IC50 (Histone deacetylase 1): 309 nM
19 | Nc1cc(Br)ccc1NC(=O)c1ccc(Cn2cnc3c(Cl)nc(Cl)nc32)cc1 | 9100 nM | – | – | – | – | –
20 | CCCCCNc1nc(Cl)nc2c1ncn2CCCC(=O)NCc1ccc(C(=O)Nc2ccccc2N)cc1 | 3430 nM | 14400 nM | 19600 nM | 177000 nM | 9680 nM | –
21 | CNc1nc(Cl)nc2c1ncn2Cc1ccc(C(=O)Nc2ccccc2N)cc1 | 1480 nM | 1670 nM | 5160 nM | 860 nM | 240 nM | IC50 (HepG2): 2290 nM; Ratio IC50 (MDA-MB-231 [1]): 4; IC50 (K562): 23 nM; Ratio IC50 (MDA-MB-231 [2]): 4; IC50 [3]: 21800 nM; IC50 (Histone deacetylase 4): > 100000 nM; IC50 [5]: 1770 nM; IC50 (Histone deacetylase 8): 1020 nM; IC50 (Histone deacetylase 1): 77.4 nM
22 | CCN(CC)c1nc(Cl)nc2c1ncn2Cc1ccc(C(=O)Nc2ccc(Br)cc2N)cc1 | 3110 nM | – | – | – | – | –
23 | CCN(CC)c1nc(Cl)nc2c1ncn2CCCC(=O)NCc1ccc(C(=O)Nc2ccccc2N)cc1 | 3910 nM | 20600 nM | 59900 nM | 392000 nM | 11100 nM | –
24 | Cc1ccc(Nc2nc(Cl)nc3c2ncn3CCCCCCCC(=O)NO)cc1 | 15.3 nM | – | – | – | – | –
25 | CCCNc1nc(Cl)nc2c1ncn2CCCC(=O)NCc1ccc(C(=O)Nc2ccccc2N)cc1 | 1260 nM | 21500 nM | 21100 nM | 514000 nM | 28400 nM | –
26 | Nc1ccccc1NC(=O)c1ccc(CNC(=O)OCc2cccnc2)cc1 [ENTINOSTAT] | – | 2480 nM | 980 nM | 1480 nM | – | IC50 (HepG2): 1760 nM; IC50 (K562): 1190 nM
27 | CNc1nc(Cl)nc2c1ncn2CCCC(=O)NCc1ccc(C(=O)Nc2ccccc2N)cc1 | 5020 nM | 87100 nM | 27000 nM | 97000 nM | 15500 nM | –
28 | O=C(CCCCCCC(=O)Nc1ccccc1)NO [VORINOSTAT] | – | 1550 nM | 2120 nM | – | 1540 nM | half-life (in vitro): 30 min
29 | Nc1cc(F)ccc1NC(=O)c1ccc(Cn2cnc3c(Cl)nc(Cl)nc32)cc1 | 2640 nM | – | – | – | – | –
30 | CCCCNc1nc(Cl)nc2c1ncn2CCCC(=O)NCc1ccc(C(=O)Nc2ccccc2N)cc1 | 950 nM | 11200 nM | 64100 nM | 165000 nM | 5640 nM | –
31 | CCCCCNc1nc(Cl)nc2c1ncn2Cc1ccc(C(=O)Nc2ccc(F)cc2N)cc1 | 2860 nM | – | – | – | – | –
32 | CCN(CC)c1nc(Cl)nc2c1ncn2Cc1ccc(C(=O)Nc2ccc(F)cc2N)cc1 | 4240 nM | – | – | – | – | –
33 | CCNc1nc(Cl)nc2c1ncn2CCCC(=O)NCc1ccc(C(=O)Nc2ccccc2N)cc1 | 2310 nM | 90800 nM | 56800 nM | 149000 nM | 17500 nM | –

Reference: ChEMBL document CHEMBL5154702, “Synthesis and biological evaluation of aminobenzamides containing purine moiety as class I histone deacetylases inhibitors” (Bioorg Med Chem, 2022)
